Usually Km stands for the substrate concentration at which the rate is half of its maximum. Broadly, the Vmax is the top rate of the reaction or transport when substrate is in excess.

What all share (format): ADME
Data set [1] addresses T1, Cytochrome P450 3A4 (Homo sapiens, UniProt P08684). The experiment in a line: Activity of human recombinant CYP3A4 assessed as conversion of testosterone to 6-beta-hydroxytestesterone at 25 uM after 60 mins in presence of 25 uM epipodophyllotoxin. The settings on record: recombinant enzyme, 1 h.
The target of data set [2] is T1, Cytochrome P450 3A4. The experiment in a line: Activity of human recombinant CYP3A4 assessed as conversion of testosterone to 6-beta-hydroxytestesterone at 25 uM after 60 mins in presence of 25 uM Miconazole. The settings on record: recombinant enzyme, 1 h.
Data set [3] addresses T1, Cytochrome P450 3A4. The experiment in a line: Ratio of Vmax to Km for human recombinant CYP3A4. The settings on record: recombinant enzyme.
Data set [4] has as its target T1, Cytochrome P450 3A4. The experiment in a line: Activity of human recombinant CYP3A4 co-expressed in Escherichia coli with human p450 NADPH reductase assessed as conversion of deoxypodophyllotoxin to epipodophyllotoxin. The settings on record: recombinant enzyme.

T1 sequence (P08684 whole entry): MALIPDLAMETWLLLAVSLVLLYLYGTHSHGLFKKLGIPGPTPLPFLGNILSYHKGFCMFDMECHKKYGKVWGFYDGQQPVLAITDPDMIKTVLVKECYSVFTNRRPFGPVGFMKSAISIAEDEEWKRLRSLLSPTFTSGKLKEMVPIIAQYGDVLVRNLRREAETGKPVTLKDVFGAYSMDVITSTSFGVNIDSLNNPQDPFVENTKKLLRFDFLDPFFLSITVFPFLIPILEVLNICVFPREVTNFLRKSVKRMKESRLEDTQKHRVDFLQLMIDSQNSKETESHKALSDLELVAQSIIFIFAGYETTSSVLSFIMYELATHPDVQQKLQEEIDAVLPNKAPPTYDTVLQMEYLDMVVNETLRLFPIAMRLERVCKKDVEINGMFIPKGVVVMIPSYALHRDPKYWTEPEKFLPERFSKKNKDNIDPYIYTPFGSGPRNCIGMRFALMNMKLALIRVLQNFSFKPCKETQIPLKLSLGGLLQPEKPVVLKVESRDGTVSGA

Regarding `C[C@]12CC[C@H]3[C@@H](CCC4=CC(=O)CC[C@@]43C)[C@@H]1CC[C@@H]2O` [TESTOSTERONE], in data set [1], the “inhibition (INH)” value is on record as 11.46%. Moreover, the “inhibition (INH)” value in data set [2] was 4.38%. The Vmax/Km in data set [3] was 0.15 nM⁻¹ min⁻¹. In addition, in data set [4], the Km is 20.5 µM and the Vmax came out at 30.3 nmol/min.

The record behind these values is ChEMBL document CHEMBL1156700, “Metabolic stereoselectivity of cytochrome P450 3A4 towards deoxypodophyllotoxin: In silico predictions and experimental validation” (Eur J Med Chem, 2008).
